Target: T1, Aurora A (Homo sapiens, UniProt O14965)
T1 sequence (O14965 1-403): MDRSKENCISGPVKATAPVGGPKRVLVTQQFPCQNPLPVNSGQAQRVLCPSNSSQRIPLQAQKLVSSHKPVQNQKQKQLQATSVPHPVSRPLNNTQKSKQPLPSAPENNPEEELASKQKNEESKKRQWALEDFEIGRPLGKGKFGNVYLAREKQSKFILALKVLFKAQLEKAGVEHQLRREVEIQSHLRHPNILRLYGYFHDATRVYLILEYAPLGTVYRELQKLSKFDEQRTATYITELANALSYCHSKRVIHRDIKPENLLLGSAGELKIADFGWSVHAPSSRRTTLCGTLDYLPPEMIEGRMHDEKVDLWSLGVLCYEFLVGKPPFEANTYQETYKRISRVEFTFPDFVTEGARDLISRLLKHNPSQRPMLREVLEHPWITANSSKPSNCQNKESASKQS
Experiment: Kinase profiling test
Format: biochemical
Details: stated as inhibition
Procedure: The test was performed using the radiolabeled ATP determination method (KINEXUS Bioinformatics Corporation, Vancouver, Canada). The test was performed following the previous reports[13]^,[20].
The three compounds were tested at the same concentration (10 μM) against the same 20 kinases used in the previous report. The test was performed by KINEXUS Bioinformatics Corporation (Vancouver, Canada), following previous reports[13]^,[20].

inhibition at 10 µM: 14%
Structure (SMILES): COc1cc(C(=O)Nc2c(C#N)c3n(c2C(=O)Nc2ccc(Cl)cc2)CCC3)cc(OC)c1OC [16d, N-(4-Chlorophenyl)-7-cyano-6-(3,4,5-trimethoxybenzamido) -2,3-dihydro-1H-pyrrolizine-5-carboxamide]

Source: paper PMC8221158, “Novel pyrrolizines bearing 3,4,5-trimethoxyphenyl moiety: design, synthesis, molecular docking, and biological evaluation as potential multi-target cytotoxic agents” (Journal of Enzyme Inhibition and Medicinal Chemistry, 2021)
